Source: US11793420B2, “Ingestible device for delivery of a dispensable substance” (Biora Therapeutics, Inc., priority 2016, dated 2023)

Target: Human TNFα (Homo sapiens, UniProt P01375)
Assay: AlphaLISA competitive inhibition assay of drug recovered from bellows or syringe

Sequence of Human TNFα (P01375 77-233 limits assumed): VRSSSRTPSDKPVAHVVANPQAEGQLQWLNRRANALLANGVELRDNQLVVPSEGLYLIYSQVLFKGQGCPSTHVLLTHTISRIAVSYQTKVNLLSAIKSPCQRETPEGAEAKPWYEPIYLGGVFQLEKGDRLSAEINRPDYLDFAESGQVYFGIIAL

shift of bellows curves (after 24 hours (FIG. 86), within the error bars): slight right shift | IC50 values of the drug dispensed from the bellows versus standard dispensation method (bellows vs. standard dispensation method (Table 6)): comparable
Substance: adalimumab [Exemptia]
impact of bellows on drug function (silicone or PVC bellows, shelf lives of 4, 24 hours, or 336 hours): do not negatively impact the drug function
